Measurements reported in patent US6084072A, “Purified lectin and methods of use” (The Regents of the University of Michigan, priority 1993, dated 2000).
Where “and” joins values, the source holds several entries; their conditions need not be identical. Equal entries are not always repeated. Where two headings read alike, the source gives them in different places.

How the values were obtained:
[1] = test system: human red blood cells (A, B, and O); experiment: Hemagglutination; format: cell-based
Procedure: In the hemagglutination procedure, red blood cells were washed and resuspended to make a 2% suspension in phosphate buffered saline. The lectin solution was serially diluted in microliter plates followed by the addition of the 2% red blood cell suspension. Hemagglutination was observed after 1 hour at room temperature. One hemagglutination unit (HU) is defined as the minimum amount of amaranthin to completely agglutinate cells and is equivalent to a lectin concentration of 2 μg/ml.

FAP colonic tissue = experiment: Lectin histochemistry, familial adenomatous polyposis (FAP) colonic tissue; format: binding, human
Text: Full thickness specimens of colonic tissue were obtained from colectomy specimens for familial adenomatous polyposis at Johns Hopkins Hospital, fixed in formalin, and embedded in paraffin for tissue sectioning. The tissue specimens contained normal-appearing flat mucosa familial adenomatous polyposis, or FAP-normal, as well as a polypoid, adenomatious tissue familial adenomatous polyposis, or FAP-abnormal.
Four micron paraffin embedded tissue sections attached to glass slides were deparaffinized by serial incubations in xylene (twice), absolute ethanol (thrice), 95% ethanol, 70% ethanol, water and finally equilibrated in phosphate buffered saline (PBS), pH 7.0, containing 0.1% bovine serum albumin (BSA) commercially available from Sigma Corp of St. Louis, Mo. The slides were blotted dry adjacent to the tissue sections, and biotinylated lectin was added at a concentration of 10 μg/ml (for ACA) and 20 μg/ml (for PNA) in a quantity sufficient to completely cover the hydrated tissue (100-2001 μl). The lectin was rinsed off after a 30 minute incubation by eight 2-second dips into phosphate buffered saline. The slides were again blotted, and the tissue covered with Streptavidin-horseradish peroxidase (HRP) obtained from Zymed Laboratories, San Francisco, Calif. at a concentration of 10 μg/ml for 30 minutes. The slides were rinsed as mentioned above, and the pigmented reaction product developed by the addition of a freshly prepared chromogen reagent solution prepared within two hours of use as follows.
3,3'-diaminobenzidine was aliqotted at 5 mg/mL in 0.01 M (Tris) tris hydroxy methyl amino methane saline, pH 7.5 and frozen at -70° C. until use. For use, the aliquot was thawed, diluted 1:10 in 0.01 M (Tris) tris hydroxy methyl amino methane saline pH 7.5, and 3.3 μL of 30% H2 O2 were added to each 5 ml. This solution was allowed to stand for 10 min, and 100-200 μl was applied to the tissue sections that had been incubated earlier with biotinylated lectin and Streptavidin-HRP. After 10 min, the slides were rinsed with albumin-free phosphate buffered saline. […]
A second method for scoring tissues was used to survey normal colonic tissues, adenomatous polyps, and cancers. For these studies, individual epithelial "units" were counted as either positive or negative; i.e., each crypt of Lieberkuhn or neoplastic gland was considered an independent scorable unit, and the tissue score was expressed in terms of the percentage of units with any degree of definite labeling as from 1^+ to 4^+. […]
Therefore, each individual crypt of Lieberkuhn was given a score from 0-4^+, and the labeling was expressed as a "weighted average", or, the sum of scores from 100 crypts, which could range from 0 (all crypts not labeled) to 400 (all 100 crypts maximally labeled). […]

[2] = test system: asialo-ovine submaxillary mucin; experiment: pH dependence of amaranthin/asialo-ovine submaxillary mucin precipitation; format: binding; conditions: 80 μg amaranthin, 5 μg asialo-ovine submaxillary mucin, universal buffer
Procedure: The pH dependence study utilized a 2-fold concentrate of a universal buffer system consisting of sodium citrate (24.6 mM), KH2 PO4 (28.7 mM) sodium barbitol (29.1 mM), boric acid (28.8 mM), and NaCl (209 mM), and was adjusted to the indicated pH values with 0.2 N NaOH or 0.2 N HCl. Water was added to complete the 2-fold dilution and the pH was recorded. Amaranthin and asialo-ovine submaxillary mucin solutions were prepared as concentrated solutions in 0.9% NaCI. A standard precipitation assay with amaranthin (80μg) and asialo-ovine submaxillary mucin (5 μg) was carried out using the universal buffer at the indicated pH.

[3] = test system: normal colonic epithelium; format: binding, human; set-up: key to Labeling of normal colon in the tissue survey / Staining (global score 0-3+): 4^+: Maximum labeling of the brown reaction product; 0: No staining of the slide compared to control sections; 1^+: trace or weak staining definitely not seen on control slides; 2+3^+: stronger staining, but definitely less than maximal

amaranthin
agglutination of A, B, O red blood cells, in words [1]: does and No difference was observed
minimum amount to completely agglutinate cells (one HU) ([1]; 2% red blood cell suspension, 1 hour at room temperature): 2 µg/mL
Weighted Average (0-400) (FAP colonic tissue; FAP, mean ± SEM, listed as ACA): 224±76
Percent of epithelial glands with bound lectin (FAP colonic tissue; all 28 specimens, mean): 67±6%
Percent of Epithelial Units Labeled (FAP colonic tissue; flat tissue, mean ± SEM, listed as ACA): 60±7% and 60%±7%
Percent of Epithelial Units Labeled (FAP colonic tissue; polypoid tissue, mean ± SEM, listed as ACA): 83±7% and 83%±7%
pH at or below which almost no precipitate formed [2]: ≤ 3 pH
pH of peak precipitation activity [2]: 5 pH
pH range of significant amaranthin activity [2]: 4-9 pH
Labeling of normal colon in the tissue survey [3]: 1^+
Staining (global score 0-3+) ([3]; biotinylated ACA 10 μg/mL or PNA 20 μg/mL): 1^+
Percent of Epithelial Units Labeled ([3]; lower half of crypt, mean ± SEM, listed as ACA): 46±4% and 46%±4%
Weighted Average (0-400) ([3]; sum of scores of 100 epithelial units, mean ± SEM, listed as ACA): 65±33
Percent of Epithelial Units Labeled ([3]; upper half of crypt, mean ± SEM, listed as ACA): 7±2% and 7%±2%
